Experiments:
Citrobacter [1] = experiment: Antibacterial activity against Citrobacter assessed as zone of inhibition at 5 to 40 ug/ml after 18 to 24 hr by disk diffusion method relative to gatifloxacin; type: functional
Escherichia coli [2] = experiment: Antibacterial activity against Escherichia coli assessed as concentration required to obtain a zone of inhibition of 10 mm after 18 to 24 hr by disk diffusion method; type: functional
T-cell [3] = experiment: Anti-inflammatory activity in Homo sapiens (human) T lymphocytes assessed as inhibition of PHA-induced [3H] thymidine uptake at 12.5 ug/ml incubated for 72 hr prior to [3H]thymidine addition measured after 18 hr by liquid scintillation method; type: functional
Shigella flexneri [4] = experiment: Antibacterial activity against Shigella flexneri assessed as concentration required to obtain a zone of inhibition of 10 mm after 18 to 24 hr by disk diffusion method; type: functional
[5] = Antibacterial activity against Hofmanni bacterium assessed as concentration required to obtain a zone of inhibition of 5 mm after 18 to 24 hr by disc diffusion method
Citrobacter [6] = experiment: Antibacterial activity against Citrobacter assessed as concentration required to obtain a zone of inhibition of 10 mm after 18 to 24 hr by disk diffusion method; type: functional
T-cell [7] = experiment: Anti-inflammatory activity in Homo sapiens (human) T lymphocytes assessed as inhibition of PHA-induced [3H] thymidine uptake at 50 ug/ml incubated for 72 hr prior to [3H]thymidine addition measured after 18 hr by liquid scintillation method; type: functional
Blood [8] = experiment: Antioxidant activity in Homo sapiens (human) whole blood assessed as inhibition of ROS production after 30 min by luminol-enhanced chemiluminescence assay; type: functional, tissue-based; conditions: 0.5 h
T-cell [9] = experiment: Anti-inflammatory activity in Homo sapiens (human) T lymphocytes assessed as inhibition of PHA-induced [3H] thymidine uptake at 3.12 ug/ml incubated for 72 hr prior to [3H]thymidine addition measured after 18 hr by liquid scintillation method; type: functional
Fusarium solani [10] = experiment: Antifungal activity against Fusarium solani assessed as concentration required to obtain a zone of inhibition of 40 mm after 7 days by disk diffusion method; type: functional
Staphylococcus aureus = experiment: Antibacterial activity against methicillin-resistant Staphylococcus aureus assessed as concentration required to obtain a zone of inhibition of 5 mm after 18 to 24 hr by disk diffusion method; type: functional
Fusarium solani [11] = experiment: Antifungal activity against Fusarium solani assessed as zone of inhibition at 5 to 40 ug/ml after 7 days by disk diffusion method relative to gatifloxacin; type: functional
Blood [12] = experiment: Antioxidant activity in Homo sapiens (human) whole blood assessed as inhibition of ROS production at 100 ug/ml after 30 min by luminol-enhanced chemiluminescence assay; type: functional; conditions: 0.5 h
Citrobacter [13] = experiment: Antibacterial activity against Citrobacter assessed as concentration required to obtain a zone of inhibition of 5 mm after 18 to 24 hr by disk diffusion method; type: functional
Shigella flexneri [14] = experiment: Antibacterial activity against Shigella flexneri assessed as concentration required to obtain a zone of inhibition of 5 mm after 18 to 24 hr by disk diffusion method; type: functional
Pseudomonas aeruginosa [15] = experiment: Antibacterial activity against Pseudomonas aeruginosa assessed as concentration required to obtain a zone of inhibition of 10 mm after 18 to 24 hr by disk diffusion method; type: functional
Klebsiella pneumoniae [16] = experiment: Antibacterial activity against Klebsiella pneumoniae assessed as concentration required to obtain a zone of inhibition of 5 mm after 18 to 24 hr by disk diffusion method; type: functional
Trichophyton rubrum [17] = experiment: Antifungal activity against Trichophyton rubrum assessed as concentration required to obtain a zone of inhibition of 40 mm after 7 days by disk diffusion method; type: functional
Trichophyton rubrum [18] = experiment: Antifungal activity against Trichophyton rubrum assessed as zone of inhibition at 5 to 40 ug/ml after 7 days by disk diffusion method relative to gatifloxacin; type: functional
Shigella flexneri [19] = experiment: Antibacterial activity against Shigella flexneri assessed as zone of inhibition at 5 to 40 ug/ml after 18 to 24 hr by disk diffusion method relative to gatifloxacin; type: functional
Bacillus subtilis = experiment: Antibacterial activity against Bacillus subtilis assessed as concentration required to obtain a zone of inhibition of 20 mm after 18 to 24 hr by disk diffusion method; type: functional
Proteus mirabilis [20] = experiment: Antibacterial activity against Proteus mirabilis assessed as concentration required to obtain a zone of inhibition of 20 mm after 18 to 24 hr by disc diffusion method; type: functional
Candida albicans = experiment: Antifungal activity against Candida albicans assessed as concentration required to obtain a zone of inhibition of 20 mm after 7 days by disk diffusion method; type: functional
Klebsiella pneumoniae [21] = experiment: Antibacterial activity against Klebsiella pneumoniae assessed as concentration required to obtain a zone of inhibition of 20 mm after 18 to 24 hr by disk diffusion method; type: functional
Escherichia coli [22] = experiment: Antibacterial activity against Escherichia coli assessed as zone of inhibition at 5 to 40 ug/ml after 18 to 24 hr by disk diffusion method relative to gatifloxacin; type: functional
[23] = Antibacterial activity against Hofmanni bacterium assessed as concentration required to obtain a zone of inhibition of 10 mm after 18 to 24 hr by disc diffusion method
Shigella sp. [24] = experiment: Antibacterial activity against Shigella typhi assessed as zone of inhibition after 18 to 24 hr by disc diffusion method relative to gatifloxacin; type: functional
Pseudomonas aeruginosa [25] = experiment: Antibacterial activity against Pseudomonas aeruginosa assessed as zone of inhibition at 5 to 40 ug/ml after 18 to 24 hr by disk diffusion method relative to gatifloxacin; type: functional
Escherichia coli [26] = experiment: Antibacterial activity against Escherichia coli assessed as concentration required to obtain a zone of inhibition of 20 mm after 18 to 24 hr by disk diffusion method; type: functional
Saccharomyces cerevisiae = experiment: Antifungal activity against Saccharomyces cerevisiae assessed as zone of inhibition at 5 to 40 ug/ml after 7 days by disk diffusion method relative to gatifloxacin; type: functional
Shigella flexneri [27] = experiment: Antibacterial activity against Shigella flexneri assessed as concentration required to obtain a zone of inhibition of 20 mm after 18 to 24 hr by disk diffusion method; type: functional
[28] = Antibacterial activity against Hofmanni bacterium assessed as concentration required to obtain a zone of inhibition of 20 mm after 18 to 24 hr by disc diffusion method
Proteus mirabilis [29] = experiment: Antibacterial activity against Proteus mirabilis assessed as zone of inhibition at 5 to 40 ug/ml after 18 to 24 hr by disc diffusion method relative to gatifloxacin; type: functional
Pseudomonas aeruginosa [30] = experiment: Antibacterial activity against Pseudomonas aeruginosa assessed as concentration required to obtain a zone of inhibition of 20 mm after 18 to 24 hr by disk diffusion method; type: functional
Fusarium solani [31] = experiment: Antifungal activity against Fusarium solani assessed as concentration required to obtain a zone of inhibition of 20 mm after 7 days by disk diffusion method; type: functional
Klebsiella pneumoniae [32] = experiment: Antibacterial activity against Klebsiella pneumoniae assessed as zone of inhibition at 5 to 40 ug/ml after 18 to 24 hr by disk diffusion method relative to gatifloxacin; type: functional
Shigella sp. [33] = experiment: Antibacterial activity against Shigella typhi assessed as concentration required to obtain a zone of inhibition of 5 mm after 18 to 24 hr by disc diffusion method; type: functional

COc1c(N2CCN(C(=O)c3ccccc3)C(C)C2)c(F)cc2c(=O)c(C(=O)O)cn(C3CC3)c12.O (stereo unspecified)
inhibition zone (IZ) (Citrobacter [1]): 47.6% | Activity (Escherichia coli [2]): 16 µg/mL | inhibition at 12.5 µg/mL (T-cell [3]): -41.5% | Activity (Shigella flexneri [4]): 13 µg/mL | Activity [5]: 6 µg/mL | Activity (Citrobacter [6]): 10 µg/mL | inhibition at 50 µg/mL (T-cell [7]): -6.9% | IC50 (Blood [8]): > 100 µg/mL | inhibition at 3.12 µg/mL (T-cell [9]): -59.5% | Activity (Fusarium solani [10]): 19 µg/mL | Activity (Staphylococcus aureus): 9 µg/mL | inhibition zone (IZ) (Fusarium solani [11]): 120% | inhibition at 100 µg/mL (Blood [12]): 15% | Activity (Citrobacter [13]): 8 µg/mL | Activity (Shigella flexneri [14]): 11 µg/mL | Activity (Pseudomonas aeruginosa [15]): 12 µg/mL | Activity (Klebsiella pneumoniae [16]): 8 µg/mL | Activity (Trichophyton rubrum [17]): 27 µg/mL | inhibition zone (IZ) (Trichophyton rubrum [18]): 185% | inhibition zone (IZ) (Shigella flexneri [19]): 88.1% | Activity (Bacillus subtilis): 18 µg/mL | Activity (Proteus mirabilis [20]): 12 µg/mL | Activity (Candida albicans): 10 µg/mL | Activity (Klebsiella pneumoniae [21]): 21 µg/mL | inhibition zone (IZ) (Escherichia coli [22]): 117.3% | Activity [23]: 12 µg/mL | inhibition zone (IZ) (Shigella sp. [24]): 80.2% | inhibition zone (IZ) (Pseudomonas aeruginosa [25]): 117.9% | Activity (Escherichia coli [26]): 19 µg/mL | inhibition zone (IZ) (Saccharomyces cerevisiae): 0% | Activity (Shigella flexneri [27]): 14 µg/mL | Activity [28]: 14 µg/mL | inhibition zone (IZ) (Proteus mirabilis [29]): 78.8% | Activity (Pseudomonas aeruginosa [30]): 18 µg/mL | Activity (Fusarium solani [31]): 17 µg/mL | inhibition zone (IZ) (Klebsiella pneumoniae [32]): 99.8% | Activity (Shigella sp. [33]): 8 µg/mL

CCCCCCCC(=O)N1CCN(c2c(F)cc3c(=O)c(C(=O)O)cn(C4CC4)c3c2OC)CC1C.O (stereo unspecified)
inhibition zone (IZ) (Citrobacter [1]): 51.5% | Activity (Escherichia coli [2]): 10 µg/mL | inhibition at 12.5 µg/mL (T-cell [3]): -41.5% | Activity (Shigella flexneri [4]): 15 µg/mL | Activity [5]: 7 µg/mL | Activity (Citrobacter [6]): 10 µg/mL | inhibition at 50 µg/mL (T-cell [7]): -6.9% | IC50 (Blood [8]): < 12.5 µg/mL | inhibition at 3.12 µg/mL (T-cell [9]): -59.5% | Activity (Fusarium solani [10]): 19 µg/mL | Activity (Staphylococcus aureus): 7 µg/mL | inhibition zone (IZ) (Fusarium solani [11]): 110% | inhibition at 100 µg/mL (Blood [12]): 96.1% | Activity (Citrobacter [13]): 8 µg/mL | Activity (Shigella flexneri [14]): 12 µg/mL | Activity (Pseudomonas aeruginosa [15]): 10 µg/mL | Activity (Klebsiella pneumoniae [16]): 13 µg/mL | Activity (Trichophyton rubrum [17]): 17 µg/mL | inhibition zone (IZ) (Trichophyton rubrum [18]): 127% | inhibition zone (IZ) (Shigella flexneri [19]): 105% | Activity (Bacillus subtilis): 13 µg/mL | Activity (Proteus mirabilis [20]): 14 µg/mL | Activity (Candida albicans): 16 µg/mL | Activity (Klebsiella pneumoniae [21]): 18 µg/mL | inhibition zone (IZ) (Escherichia coli [22]): 90.78% | Activity [23]: 11 µg/mL | inhibition zone (IZ) (Shigella sp. [24]): 87.5% | inhibition zone (IZ) (Pseudomonas aeruginosa [25]): 78.57% | Activity (Escherichia coli [26]): 14 µg/mL | inhibition zone (IZ) (Saccharomyces cerevisiae): 0% | Activity (Shigella flexneri [27]): 20 µg/mL | Activity [28]: 14 µg/mL | inhibition zone (IZ) (Proteus mirabilis [29]): 92% | Activity (Pseudomonas aeruginosa [30]): 11 µg/mL | Activity (Fusarium solani [31]): 14 µg/mL | inhibition zone (IZ) (Klebsiella pneumoniae [32]): 113% | Activity (Shigella sp. [33]): 8 µg/mL

COc1c(N2CCN(C(C)=O)C(C)C2)c(F)cc2c(=O)c(C(=O)O)cn(C3CC3)c12.O (stereo unspecified)
inhibition zone (IZ) (Citrobacter [1]): 98.9% | Activity (Escherichia coli [2]): 17 µg/mL | inhibition at 12.5 µg/mL (T-cell [3]): -35.7% | Activity (Shigella flexneri [4]): 22 µg/mL | Activity [5]: 8 µg/mL | Activity (Citrobacter [6]): 21 µg/mL | inhibition at 50 µg/mL (T-cell [7]): -52.3% | IC50 (Blood [8]): > 100 µg/mL | inhibition at 3.12 µg/mL (T-cell [9]): -23.4% | Activity (Fusarium solani [10]): 15 µg/mL | Activity (Staphylococcus aureus): 14 µg/mL | inhibition zone (IZ) (Fusarium solani [11]): 93.3% | inhibition at 100 µg/mL (Blood [12]): -15.1% | Activity (Citrobacter [13]): 17 µg/mL | Activity (Shigella flexneri [14]): 19 µg/mL | Activity (Pseudomonas aeruginosa [15]): 17 µg/mL | Activity (Klebsiella pneumoniae [16]): 16 µg/mL | Activity (Trichophyton rubrum [17]): 34 µg/mL | inhibition zone (IZ) (Trichophyton rubrum [18]): 239% | inhibition zone (IZ) (Shigella flexneri [19]): 151% | Activity (Bacillus subtilis): 17 µg/mL | Activity (Proteus mirabilis [20]): 12 µg/mL | Activity (Candida albicans): 16 µg/mL | Activity (Klebsiella pneumoniae [21]): 25 µg/mL | inhibition zone (IZ) (Escherichia coli [22]): 134.8% | Activity [23]: 12 µg/mL | inhibition zone (IZ) (Shigella sp. [24]): 113% | inhibition zone (IZ) (Pseudomonas aeruginosa [25]): 150.1% | Activity (Escherichia coli [26]): 22 µg/mL | inhibition zone (IZ) (Saccharomyces cerevisiae): 0% | Activity (Shigella flexneri [27]): 24 µg/mL | Activity [28]: 16 µg/mL | inhibition zone (IZ) (Proteus mirabilis [29]): 76.6% | Activity (Pseudomonas aeruginosa [30]): 24 µg/mL | Activity (Fusarium solani [31]): 13 µg/mL | inhibition zone (IZ) (Klebsiella pneumoniae [32]): 158% | Activity (Shigella sp. [33]): 9 µg/mL

— ChEMBL document CHEMBL3044830, “Synthesis, characterization, antibacterial, antifungal, and immunomodulating activities of gatifloxacin derivatives” (Med Chem Res, 2010)
